Reference: US20070299098A1, “Therapeutic Agent for Neuropathic Pain” (Japan Science and Technology Agency, priority 2004, published 2007)

Experiments:
[1] = system: hyperalgesia model induced by complete ligation of the L5/L6 spinal nerves; test: Mechanical stimulation test (Dynamic Plantar Aesthesiometer), left plantar pain threshold in hyperalgesia model; assay type: in vivo, rats; conditions: for maximum pain threshold following administration (mechanical stimulation): measured 20, 40, 60 min after administration, male rats; for change of pain threshold versus saline control, in words (mechanical stimulation): intraperitoneal, effective doses, Dunnett's multiple comparison test
Description: (§1) Use was made of a hyperalgesia model induced by complete ligation of the L5/L6 spinal nerves in five- to seven-week-old male rats as the experimental animals.
(§2) Mechanical stimulation tests were carried out using the Ugo Basile Model 37400 Dynamic Plantar Aesthesiometer, and thermal stimulation tests were carried out using a plantar thermal stimulation tester (Plantar Test 7370, Ugo Basile). The pain thresholds of the feet on each model animal were measured, and the animals were divided into groups having uniform pain thresholds as measured prior to administration on each day of the experiment. In mechanical stimulation, animals for which the model animal foot pain threshold was 8.0 g or more were excluded from the tests. In thermal stimulation, animals for which the pain threshold for the model foot was 10 seconds or more were excluded from the tests.
(§3) The required amount of the test substance was weighed out and dissolved in physiological saline as the medium. A 2 mg/ml solution was prepared as the highest concentration mixture in the low dosage study, and a 24 mg/ml solution was prepared as the highest concentration mixture in the high dosage study. Solutions at the various concentrations were all prepared at the time of use by suitably diluting these highest concentration mixtures.
Although the object here is to ascertain the direct effect of the test substance on the spinal cord, because the substance has been confirmed to pass through the blood-brain barrier, intraperitoneal administration, which is a simple method of administration, was employed. Using the syringe barrel and needle, a volume of 5 ml/kg was administrated intraperitoneally.
Groups of five male rats (333.7 to 414.2 g) in which the hyperalgesia model had been induced were used.
Groups of five male rats (372.0 to 459.5 g) in which the hyperalgesia model had been induced were used.
Groups of five male rats (295.6 to 356.6 g) in which the hyperalgesia model had been induced were used. […]

[2] = system: hyperalgesia model induced by complete ligation of the L5/L6 spinal nerves; test: Thermal stimulation test (plantar thermal stimulation tester), left plantar pain threshold in hyperalgesia model; assay type: in vivo, rats; conditions: for maximum pain threshold following administration (thermal stimulation): thermal stimulation intensity 35, measured 20, 40, 60 min after administration, male rats; for change of pain threshold versus saline control, in words (thermal stimulation): intraperitoneal, effective doses
Description: as §1, §2, §3
Using the syringe barrel and needle, a volume of 5 ml/kg was administrated intraperitoneally.
Groups of five male rats (356.7 to 444.0 g) in which the hyperalgesia model had been induced were used.
Groups of five male rats (400.3 to 499.9 g) in which the hyperalgesia model had been induced were used.
Groups of five male rats (324.8 to 399.0 g) in which the hyperalgesia model had been induced were used.
(§4) Groups of five male rats (307.0 to 393.1 g) in which the hyperalgesia model had been induced were used. A plantar thermal stimulation tester set to a thermal stimulation intensity of 35 was used to measure the left plantar pain threshold before naloxonazine administration, and 20 minutes, 40 minutes and 60 minutes after administration.
as §4, with “(365.3” for “(307.0”, “437.2” for “393.1”, “naltrindole” for “naloxonazine”

[3] = high dose study, 30-120 mg/kg intraperitoneal

SMILES	maximum pain threshold following administration (mechanical stimulation) ([1]; 0.3 mg/kg intraperitoneal)	maximum pain threshold following administration (mechanical stimulation) ([1]; 3 mg/kg intraperitoneal)	maximum pain threshold following administration (mechanical stimulation) ([1]; 30 mg/kg intraperitoneal)	change of pain threshold versus saline control, in words (mechanical stimulation) [1]	maximum pain threshold following administration (thermal stimulation) ([2]; 0.3 mg/kg intraperitoneal)	maximum pain threshold following administration (thermal stimulation) ([2]; 3 mg/kg intraperitoneal)	maximum pain threshold following administration (thermal stimulation) ([2]; 30 mg/kg intraperitoneal)	change of pain threshold versus saline control, in words (thermal stimulation) [2]	maximum pain threshold following administration (mechanical stimulation) ([1]; 0.1 mg/kg intraperitoneal)	maximum pain threshold following administration (mechanical stimulation) ([1]; 1 mg/kg intraperitoneal)	maximum pain threshold following administration (mechanical stimulation) ([1]; 10 mg/kg intraperitoneal)	maximum pain threshold following administration (mechanical stimulation) ([1]; 60 mg/kg intraperitoneal)	maximum pain threshold following administration (mechanical stimulation) ([1]; 120 mg/kg intraperitoneal)	dose at which the analgesic effect reached its peak (mechanical stimulation) [1, 3]	maximum pain threshold following administration (thermal stimulation) ([2]; 0.1 mg/kg intraperitoneal)	maximum pain threshold following administration (thermal stimulation) ([2]; 1 mg/kg intraperitoneal)	maximum pain threshold following administration (thermal stimulation) ([2]; 120 mg/kg intraperitoneal)	dose at which the analgesic effect reached its peak (thermal stimulation) [2, 3]
C=CCN1CC[C@]23c4c5ccc(O)c4O[C@H]2/C(=N/N=C2\CC[C@@]4(O)[C@H]6Cc7ccc(O)c8c7[C@@]4(CCN6CC=C)[C@H]2O8)CC[C@@]3(O)[C@H]1C5 [naloxonazine]	4.9 g	8.6 g	14.5 g	rose significantly with the administration of 3 and 30 mg/kg	6.9 s	7.9 s	12.3 s	rose significantly with the administration of 30 mg/kg										
C=CCN1CC[C@]23c4c5ccc(O)c4O[C@H]2C(=O)CC[C@@]3(O)[C@H]1C5 [naloxone]			10.4 g	rose significantly with the administration of 1 mg and 10 mg				rose significantly with the administration of 10 mg	5.8 g	7.7 g	9.5 g	10.6 g	10.3 g	60 mg/kg	7.2 s	9.2 s	23.8 s	30 mg/kg
O=C1CC[C@@]2(O)[C@H]3Cc4ccc(O)c5c4[C@@]2(CCN3CC2CC2)[C@H]1O5 [naltrexone]	5.1 g	6.7 g	10.1 g	rose significantly with the administration of 30 mg/kg	7.7 s			rose significantly with the administration of 3 and 30 mg/kg										
Oc1ccc2c3c1O[C@H]1c4[nH]c5ccccc5c4C[C@@]4(O)[C@@H](C2)N(CC2CC2)CC[C@]314 [naltrindole]	5.8 g	9.4 g	14.1 g	rose significantly with the administration of 3 and 30 mg/kg	7.0 s	9.2 s	9.2 s	rose significantly with the administration of 3 and 30 mg/kg										
